Consider 22 sequences from US20130310306A1, “HUMAN LACTOFERRIN DERIVED PEPTIDES AND THEIR USE” (PharmaSurgics In Sweden AB, priority 2011, published 2013).

One assay deals with S. aureus (CCUG 1800). Briefly: Minimal microbicidal concentration (MMC99) assay, S. aureus. Format: cell-based. The conditions noted are these: 2 hours; for MMC99 μM in 50% SWF: 50% heat inactivated simulated wound fluid. On the procedure:
Antimicrobial Activity was Measured as Bactericidal Effect on S. Aureus Using Minimal Microbicidal Concentration, MMC99, Assay)
S. aureus (#1800; CCUG, Gothenburg, Sweden) cultured on blood-agar plates [Columbia agar (Oxoid, Basingstoke, UK) supplemented with 5% defibrinated horse blood (National Veterinary Institute (SVA), Uppsala, Sweden)] were transferred to brain heart infusion broth (3.7% BHI; Difco, BD Diagnostics, Franklin Lakes, N.J., USA) and incubated in a shaker at 250 rpm+37° C. over night. The culture was thereafter be diluted 1:10 in fresh BHI broth and incubated for additional two hours to reach log-phase growth. The bacteria were pelleted and suspended in 1% BHI medium (BHI broth diluted 100 times in ultra-pure water) to a concentration of 10^7 bacteria/ml as estimated by measuring optical density at 600 nm. Peptides were serially diluted by two-fold steps from 160 μM to 1.25 μM in 1% BHI medium. The peptides (100 μl) were thereafter incubated with bacteria (5 μl á 10^7 bact./ml) for 2 hours at +37° C. Drops (5 μl) of the suspension were placed on blood agar plates. The blood agar plates were incubated over night at +37° C. The MMC99 values, i.e. the lowest peptide concentration needed to achieve a 99% reduction of viable bacteria, were recorded (Table 3). The concentration of the bacterial suspension used in the assay was confirmed by viable counts on blood agar plates.
S. aureus (#1800; CCUG, Gothenburg, Sweden) cultured on blood-agar plates [Columbia agar (Oxoid, Basingstoke, UK) supplemented with 5% defibrinated horse blood (National Veterinary Institute (SVA), Uppsala, Sweden)] were transferred to brain heart infusion broth (3.7% BHI; Difco, BD Diagnostics, Franklin Lakes, N.J., USA) and incubated in a shaker at 250 rpm+37° C. over night. The culture was thereafter be diluted 1:10 in fresh BHI broth and incubated for additional two hours to reach log-phase growth. The bacteria were pelleted and suspended in 1% BHI medium (BHI broth diluted 100 times in ultra-pure water) to a final concentration of 10^7 bacteria/ml as estimated by measuring optical density at 600 nm. Peptides were serially diluted by two-fold steps from 400 μM to 0.78 μM in either 1% BHI medium or in 50% heat inactivated simulated wound fluid [SWF, containing 1 part 0.1% peptone (Oxoid, Basingstoke, UK) in saline and 1 part fetal bovine serum, diluted 2 times in ultra-pure water].
The peptides (100 μl) were thereafter incubated with bacteria (5 μl á 10^7 bact./ml) for 2 hours at +37° C. Drops (5 μl) of the suspension were placed on blood agar plates. The blood agar plates were incubated over night at +37° C. The MMC99 values, i.e. the lowest peptide concentration needed to achieve a 99% reduction of viable bacteria were recorded (Table 6). The concentration of the bacterial suspension used in the assay was confirmed by viable counts on blood agar plates.
The antimicrobial effects of the peptide 265 (SEQ ID NO: 27) was analysed by MMC99 (minimal microbicidal concentration) assay against S. aureus (CCUG 1800), MRSA (CCUG 41879), P. aeruginosa (ATCC 15442), E. coli (CCUG 31246), S. pyogenes (CCUG 4207), P. acnes (CCUG 1794T), S. epidermidis (ATCC12228), K. pneumoniae (ATCC 13883), A. baumannii (ATCC 19606), and C. albicans (ATCC 64549). The peptides were purchased from Biopeptide Company (San Diego, Calif., USA) and Bachem AG (Bubendorf, Switzerland) and results are presented in Table 8A and 8B respectively.
Peptide was serially diluted in two different assay medium, 1% BHI medium (brain-heart infusion medium) or 50% heat inactivated simulated wound fluid (SWF), and thereafter incubated with the microorganisms for 2 hours. Drops of the suspension were placed on blood agar plates. The MMC99 values, i.e. the lowest peptide concentration needed to achieve a 99% reduction of viable microorganisms, were recorded. As presented in Table 8, the peptide has the ability to kill microorganisms frequently appearing in infections.

The test system of assay [1] is TNF-α production in LPS stimulated THP-1 cells. Nature of the assay: Inhibition of TNF-α production in LPS stimulated THP-1 cells (ELISA). As to conditions: for TNF-α at 40 μM peptide / TNF-α at 4 μM peptide / TNF-α at 10 μM peptide: mean relative secretion; for TNF-α at 40 μM peptide: stimulated level without peptide = 100%, basal = 0%. (In general: In an ELISA, binding on a coated surface is turned into a signal by an enzyme label.)

[2] abbreviates: screen 1, 99% reduction of viable bacteria.

Regarding CFLWRRNMRKVRGSRRRRG [Peptide 276], in the assay with S. aureus (CCUG 1800) (screen 2), the “MMC99 μM in 1% BHI medium” value came to 6.25 µM and the “MMC99 μM in 50% SWF” value is 12.5 µM. Moreover, in assay [1] (screen 2, 40 μM peptide), the “TNF-α at 40 μM peptide” value was determined as 38.8%. In assay [1] (screen 2), the “TNF-α at 4 μM peptide” value amounted to 111.0% and the “TNF-α at 10 μM peptide” value came to 135.3%.

Take CFQWKRAMRKVRGPPVSCIKRDS [Peptide 159]: the “MMC99 μM in 1% BHI medium” value in the assay on S. aureus (CCUG 1800) (setting [2]) was found to be 20 µM. The “TNF-α at 40 μM peptide” value in assay [1] (screen 1, 40 μM peptide, 6 h) was determined as 60%.

For the sequence CFQWKRAMRKVRGSRRRRG [Peptide 155], the “MMC99 μM in 1% BHI medium” value with S. aureus (CCUG 1800) (setting [2]) came out at 10 µM. Moreover, the “TNF-α at 40 μM peptide” value in assay [1] (screen 1, 40 μM peptide, 6 h) amounted to 5%.

Regarding CFQWQRNMRKVRGPPVSCIKR [Peptide 157], the “MMC99 μM in 1% BHI medium” value with S. aureus (CCUG 1800) (setting [2]) is 20 µM. Also, in assay [1] (screen 1, 40 μM peptide, 6 h), the “TNF-α at 40 μM peptide” value amounted to 153%.

Take EATKCFQWQRNMRKVRGPPVSSIKR [Peptide 156]: the “MMC99 μM in 1% BHI medium” value with S. aureus (CCUG 1800) (setting [2]) amounted to 20 µM. The “TNF-α at 40 μM peptide” value in assay [1] (screen 1, 40 μM peptide, 6 h) came out at 124%.

As to FQWKRRKRMRRGSVRRRG [Peptide 266], the “TNF-α at 40 μM peptide” value in assay [1] (screen 2, 40 μM peptide) is on record as 101.1%.

For the sequence FQWKRRMRKVRGSKKKKG [Peptide 257], in the assay on S. aureus (CCUG 1800) (screen 2), the “MMC99 μM in 1% BHI medium” value was 6.25 µM and the “MMC99 μM in 50% SWF” value is 200 µM. In assay [1] (screen 2, 40 μM peptide), the “TNF-α at 40 μM peptide” value came out at 62.8%. In addition, in assay [1] (screen 2), the “TNF-α at 4 μM peptide” value came to 114.5% and the “TNF-α at 10 μM peptide” value was found to be 109.1%.

Take FQWKRRMRKVRGSLRRWG [Peptide 258]: in the assay on S. aureus (CCUG 1800) (screen 2), the “MMC99 μM in 1% BHI medium” value turned out to be 6.25 µM and the “MMC99 μM in 50% SWF” value was 12.5 µM. Moreover, in assay [1] (screen 2, 40 μM peptide), the “TNF-α at 40 μM peptide” value came out at 39.8%. Also, in assay [1] (screen 2), the “TNF-α at 4 μM peptide” value is given as 110.4% and the “TNF-α at 10 μM peptide” value is given as 115.4%.

As for FQWKRRMRKVRGSRRRRG [Peptide 127], the “MMC99 μM in 1% BHI medium” value in the assay on S. aureus (CCUG 1800) (setting [2]) turned out to be 5 µM. Also, the “TNF-α at 40 μM peptide” value in assay [1] (screen 1, 40 μM peptide, 6 h) is reported as 9%.

As to FQWKRRMRKVRSGRRRGR [Peptide 264], in assay [1] (screen 2, 40 μM peptide), the “TNF-α at 40 μM peptide” value is 87.2%.

For FQWQRKMRKVRGSRRRRG [Peptide 126], the “MMC99 μM in 1% BHI medium” value with S. aureus (CCUG 1800) (setting [2]) was 10 µM. Besides, the “TNF-α at 40 μM peptide” value in assay [1] (screen 1, 40 μM peptide, 6 h) worked out at 107%.

Regarding FQWQRNMRKVRGPPSRRRRG [Peptide 154], in the assay on S. aureus (CCUG 1800) (setting [2]), the “MMC99 μM in 1% BHI medium” value was determined as 10 µM. In addition, in assay [1] (screen 1, 40 μM peptide, 6 h), the “TNF-α at 40 μM peptide” value is recorded as 162%.

In the case of FQWQRNMRKVRGPSRRRRG [Peptide 153], the “MMC99 μM in 1% BHI medium” value in the assay on S. aureus (CCUG 1800) (setting [2]) turned out to be 10 µM. The “TNF-α at 40 μM peptide” value in assay [1] (screen 1, 40 μM peptide, 6 h) was determined as 159%.

In the case of FQWQRNMRKVRGSRRRRG [Peptide 116], the “MMC99 μM in 1% BHI medium” value in the assay with S. aureus (CCUG 1800) (setting [2]) was determined as 10 µM. Besides, the “TNF-α at 40 μM peptide” value in assay [1] (screen 1, 40 μM peptide, 6 h) is on record as 83%.

For FQWQRNMRKVRGSRRRRG [Peptide 150], the “MMC99 μM in 1% BHI medium” value in the assay with S. aureus (CCUG 1800) (setting [2]) came to 10 µM. Further, the “TNF-α at 40 μM peptide” value in assay [1] (screen 1, 40 μM peptide, 6 h) is given as 134%.

Regarding FQWQRNMRKVRGSRRRRG [Peptide 152], in the assay with S. aureus (CCUG 1800) (setting [2]), the “MMC99 μM in 1% BHI medium” value worked out at 10 µM. In addition, the “TNF-α at 40 μM peptide” value in assay [1] (screen 1, 40 μM peptide, 6 h) is listed as 110%.

Consider FQWQRNMRKVRGSRRRRG [Peptide 224], for which, in the assay on S. aureus (CCUG 1800) (screen 2), the “MMC99 μM in 1% BHI medium” value turned out to be 12.5 µM and the “MMC99 μM in 50% SWF” value was 400 µM. Also, the “TNF-α at 40 μM peptide” value in assay [1] (screen 2, 40 μM peptide) came out at 113.4%.

Consider FQWQRNMRKVRGSRRRRG [Peptide 256], for which, in the assay with S. aureus (CCUG 1800) (screen 2), the “MMC99 μM in 1% BHI medium” value was 12.5 µM and the “MMC99 μM in 50% SWF” value is 200 µM. For the same sequence, the “TNF-α at 40 μM peptide” value in assay [1] (screen 2, 40 μM peptide) is on record as 100.5%.

FQWQRNMRKVRGSRRRRG [Peptide 282]: in the assay with S. aureus (CCUG 1800) (screen 2), the “MMC99 μM in 1% BHI medium” value was 12.5 µM and the “MMC99 μM in 50% SWF” value is 200 µM. Also, in assay [1] (screen 2, 40 μM peptide), the “TNF-α at 40 μM peptide” value was determined as 114.8%.

As to “FQWQRNMRKVRGSRRRRG [template peptide, reference compound]”, the “TNF-α activities at 40 μM” value in assay [1] (40 μM peptide, result in words) was “almost inactive”. For the same sequence, in assay [1] (concentrations higher than 40 μM, result in words), the “TNF-α activity at higher concentrations” value is recorded as “active”.

For FRWKRRMRKVRGSRRRQG [Peptide 263], in the assay with S. aureus (CCUG 1800) (screen 2), the “MMC99 μM in 1% BHI medium” value came to 6.25 µM and the “MMC99 μM in 50% SWF” value was 100 µM. For the same sequence, in assay [1] (screen 2, 40 μM peptide), the “TNF-α at 40 μM peptide” value is 61.4%. In assay [1] (screen 2), the “TNF-α at 4 μM peptide” value is on record as 93.6% and the “TNF-α at 10 μM peptide” value is given as 100.1%.

For the sequence VYYKRTARKARGSRRRRG [Peptide 272], the “TNF-α at 40 μM peptide” value in assay [1] (screen 2, 40 μM peptide) amounted to 102.8%.
